From article PMC6987128, “Target protein-oriented isolation of Hes1 dimer inhibitors using protein based methods” (Scientific Reports, 2020)

Tested on: C17.2 mouse neural stem cells
Assay: Neural stem cell differentiation assay (Tuj1/GFAP immunofluorescence staining)
Type: cell-based
Details: C17.2 cells, 6 days; for increase of neurons compared to control: vs DMSO control
Source text: We recently developed another protein-based screening method, the target protein oriented natural products isolation method (TPO-NAPI) using protein beads (Fig. 2B). Agalloside, inohanamine, α-mangostine, BE-14106, isomicromonolactam, staurosporin and linarin were isolated as Hes1 binding compounds using the TPO-NAPI method[15],[17]. Rat Hes1 (1–95) containing basic and helix-loop-helix domains was immobilized because the helix-loop-helix domain is known to be important for Hes1-Hes1 interaction; therefore, utilizing this domain in the beads method would likely be effective for screening Hes1 dimer inhibitors. GST-Hes1 immobilized beads were prepared by mixing freshly prepared GST-Hes1 protein with glutathione Sepharose 4B beads. GST-only beads were prepared as a control. After incubating the beads with plant MeOH extracts at 4 °C for 2 h, bound compounds were eluted by adding EtOH and heating at 100 °C for 3 min, then the eluted compounds were analyzed by HPLC. […] The MeOH extract (64.6 g) of Terminalia chebula bark was partitioned with hexane, EtOAc and BuOH to obtain hexane (1.5 g), EtOAc (3.6 g), BuOH (42.6 g), and aqueous (20.5 g) soluble fractions. The EtOAc fraction contained the target peak and was subjected to silica gel column chromatography to give eight fractions (1A-H). Fraction 1D contained the target peak and was separated by ODS column chromatography and reverse-phase HPLC to give compound 11 (0.4 mg). Compound 11 was identified as 4-O-(4″-O-galloyl-α-L-rhamnopyranosyl)ellagic acid by comparison of its NMR data with reported spectral data[37]. […] This is the strongest Hes1 dimer inhibitor reported to date. The ability of 11 to accelerate the differentiation of C17.2 mouse neural stem cells was evaluated (Fig. 5). C17.2 cells (2 × 10^5 cells/mL) were seeded in a poly-L-lysine-coated 24 well plates and incubated for 24 h, then the cells were treated with DMSO (control), 100 μM valproic acid (VPA), 5 μM retinoic acid (RA) (positive controls) or 11 (1 or 5 μM) for 6 days. A confocal microscope was used to obtain images of differentiated neural cells after immunostaining class III β-tubulin (Tuj1) in neurons, and glial fibrillary acidic protein (GFAP) in astrocytes and nuclei (TO-PRO-3). […] In contrast, the control dish containing cells treated with DMSO contained small number of neurons.
C17.2 cells were cultured in proliferation medium [DMEM (DS Pharma Biomedical Co., Ltd. Osaka, Japan) supplemented with 10% fetal bovine serum (Biowest, Nuaillé, France), 5% horse serum (Gibco, Life Technologies, Tokyo, Japan)]. Neural differentiation of C17.2 cells was initiated by transferring the cells to differentiation medium [Neurobasal Medium (Gibco) supplemented with 2% B-27 without vitamin A (Gibco), 1% antibiotic-antimycotic (Gibco)]. All cultures were maintained in a humidified incubator at 37 °C in 5% CO2/95% air.
C17.2 cells were dissociated using the proliferation medium 2 × 10^5 cells/mL on cover glass (MATSUNAMI GLASS) coated with poly-L-lysine and fibronectin/laminin. After incubation for 24 h, cells were washed with D-MEM and treated with individual compounds in differentiation medium for 6 days.
C17.2 cells were fixed with 4% paraformaldehyde in PBS for 20 min at room temperature (r.t.) and washed with 1% BSA in PBS three times. After blocking with 10% BSA in 0.3% Triton X-100 in PBS for 45 min at r.t., fixed cells were incubated with primary antibodies (anti-βIII-Tubulin; Neuronal Class III, Mouse-Mono, 1:400, R&D Systems^TM; anti-GFAP, 1:400, VERITAS) for 12 h at 4 °C. After washing three times with 1% BSA in PBS (500 μL/well), cells were incubated with secondary antibodies (Alexa Fluor® 488 goat anti-mouse IgG (H + L), 1:400, Life Technologies; Alexa Fluor® 555 goat ant-rabbit IgG (H + L), 1:200, Life Technologies) for 1 hr at r.t. in the dark. […]

## CC1OC(Oc2cc3c(=O)oc4c(O)c(O)cc5c(=O)oc(c2O)c3c45)C(O)C(O)C1OC(=O)c1cc(O)c(O)c(O)c1 [Compound 11, 4-O-(4″-O-galloyl-α-L-rhamnopyranosyl)ellagic acid]
1 µM
  differentiated neurons: 33.6%
  increase of neurons compared to control: 67%
5 µM
  differentiated neurons: 45.4%
  increase of neurons compared to control: 125%
